Data: patent publication US5219825A, “Synergistic herbicidal compositions comprising herbicides which generate toxic oxygen radicals and chelating agents which inhibit their detoxification” (Yeda Research and Development Co., Ltd., priority 1986, dated 1993)

Key:
[1] = tested on: Conyza bonariensis paraquat sensitive (low herbicide requiring) biotype; test: Malonyldialdehyde in tissue (lipoxidation, membrane damage) after spraying; assay type: in vivo; conditions: atrazine 0 μM; DDC 0.5% alone; low herbicide requiring biotype; untreated control = 100
Experimental: (§1) Seeds of two biotypes of Conyza bonariensis (L.) Cronq. (synonym C. linifolia) were obtained from Egypt. The paraquat sensitive biotype was gathered near Alexendria and seeds of the resistant type from the Tahrir irrigation district. They were obtained from Dr. Martin Parham in England. Seeds were germinated in a growth room with a 14 h light period at 25° C. Plants were transferred out of doors 24 h before being sprayed. The phytotoxicity of three herbicides representative of the three different modes of generating active oxygen species known at present. Commercial paraquat (Gramoxone-ICI Plant Protection Ltd) was formulated with 0.1% (w/v) Tween-20 (a non-ionic surfactant) for spraying. The response to the range of 10^-5 M to 10^-2 M paraquat was measured by spraying two plants per concentration to run-off in the early morning. All plants were exposed to sunlight for at least 13 h (1300 μE.m^-2s^-1 photosynthetically active radiation (PAR) at mid day). Commercial acifluorfen (Blazer, Rohm, and Hass, Philadelphia, Pa., USA) to which was added 0.25% Tween-20 was sprayed to run-off. The response to spraying was measured as with paraquat 24 h after spraying. Commercial atrazine (Atranex 50 WP-Agan) was sprayed at various rates in 0.25% Tween 20 to run off. Fully expanded, 8 to 10 cm long leaves from plants in the rosette stage were used in all experiments. Phytotoxicity of acifluorfen and paraquat was measured as CO2 fixation 24 h later as follows: Detached leaves were placed on wet filter paper in a sealed chamber with 5μ Ci^14 C-sodium bicarbonate. Tartaric acid was remotely dripped on the sodium bicarbonate to release ^14 CO2. Leaves were illuminated with […] (PAR) for 30 min. Eighty percent acetone was added and the mixture put under strong light to photobleach pigments and evaporate the acetone. A scintillation mixture of Lumax:xylene (45:55) was added to the leaves and remaining water. The samples were counted and the data expressed as DPM.cm^-2. Area was measured with a planimeter from photocopies of the leaves made prior to photosynthesis measurements. Phytotoxicity of atrazine was measured as the elevated level of malonyldialdehyde in the tissue. Malonyldialdehyde (as measured with thiobarbituric acid according to Dodge and Gillham (Asp. Appl. Biol 11 97 (1986)) is a measurement of lipoxidation of unsaturated fatty acids, and provides an excellent estimation of damage by active oxygen species.
^b membrane damage was measured as malonyldialdehyde release
Similarly, both the paraquat resistant and sensitive biotypes of Conyza bonariensis were treated with two other oxidant generating herbicides. Atrazine (of the triazine group) is the most widely used oxidant generating herbicides in agriculture. We used various dilutions of a commercial wettable powder (Atranex 50WP-Agan Chemicals) to which we added 0.5% DDC. The effects were scored 24 h later. […] We also tested to see whether acifluorfen, a nitro diphenyl ether herbicide would be synergized. It is generally agreed that light and oxygen are required for its action via oxidant damage. We sprayed a commercial formulation of acifluorfen (Blazer, Rohm and Haas) to which were added 0.25% Tween-20 detergent, with and without DDC. The effects were scored 24 h later.

[2] = tested on: superoxide dismutase extracted from chloroplasts of Conyza bonariensis biotype requiring low levels of oxidant herbicide; test: Inhibition of superoxide dismutase activity on gel; assay type: biochemical; conditions: gel soaked with 0.2% diethyldithiocarbamate
Experimental: (§2) Based on preliminary evidence that there was no difference in superoxides dismutase activity in whole leaves of these two biotypes and our own findings we assayed the levels of the dismutating enzymes in chloroplast extracts. The oxidant producing herbicides are effective in field conditions only in the light. […] This justifies assay of these enzymes in chloroplasts. Intact chloroplasts were isolated according to the method of Slovacek and Hind (Plant Physio. 60, 538 (1977)) except that 50 mM 2-(N-morpholino)ethanesulfonic acid buffer was used instead of the pyrophosphate buffer originally used in the chloroplast isolation medium. […] Chlorophyll content was measured in 80% acetone according to Arnon (Plant Physiol. 24 1 […]). Intactness of chloroplast was measured by means of ribulose-bis-phosphate-carboxylase activity in the chloroplast fraction supernatant according to Bjorkman (Physiol. Plant 21 1, (1968)), and proteins by the method of Bradford (Analyt. Biochem. 72 248 (1976)). […] We developed a technique to quantify superoxide dismutase by generating a standard curve by running different levels of known superoxide dismutase (ex bovine blood, Sigma) on the same gel. […] The gels were scanned in a Beckman DU-8 spectrophotometer, the peak areas were measured and related to the superoxide dismutase standard curve which was linear up to 0.2 enzyme units. […]

[3] = tested on: superoxide dismutase extracted from chloroplasts of Conyza bonariensis biotype requiring high levels of oxidant herbicide; test: Inhibition of superoxide dismutase activity on gel; assay type: biochemical; conditions: gel soaked with 0.2% diethyldithiocarbamate
Experimental: as §2

[4] = tested on: Conyza bonariensis paraquat tolerant biotype; test: Phytotoxicity measured as 14CO2 fixation 24 h after spraying; assay type: in vivo; conditions: for % photosynthesis inhibition: tolerant biotype
Experimental: as §1

[5] = tested on: Conyza bonariensis paraquat sensitive biotype; test: as above; assay type: in vivo; conditions: for % photosynthesis inhibition: sensitive biotype
Experimental: as §1

[6] = herbicide molar conc. 3 × 10^-4
[7] = herbicide molar conc. 3.2 × 10^-5

Compound	membrane damage (malonyldialdehyde release) [1]	% inhibition of activity [2]	% inhibition of activity [3]	IC100 ([4]; Conyza bonariensis, 24 h, resistant biotype, read-out: concentration at which CO2 assimilation ceased)	% photosynthesis inhibition ([4]; herbicide molar conc. 3 × 10^-3)	% photosynthesis inhibition [4, 6]	% photosynthesis inhibition [4, 7]	% photosynthesis inhibition ([4]; herbicide molar conc. 10^-3)	% photosynthesis inhibition ([4]; herbicide molar conc. 10^-4)	% photosynthesis inhibition ([4]; herbicide molar conc. 10^-5)	IC100 ([5]; Conyza bonariensis, 24 h, wild biotype, read-out: concentration at which CO2 assimilation ceased)	% photosynthesis inhibition [5, 6]	% photosynthesis inhibition [5, 7]	% photosynthesis inhibition ([5]; herbicide molar conc. 10^-3)	% photosynthesis inhibition ([5]; herbicide molar conc. 10^-4)	% photosynthesis inhibition ([5]; herbicide molar conc. 10^-5, spray to run-off)
CCN(CC)C(=S)[S-].[Na+] [DDC, Sodium diethyldithiocarbamate]	125	100%	100%	–	–	–	–	–	–	–	–	–	–	–	–	–
C[n+]1ccc(-c2cc[n+](C)cc2)cc1 [paraquat, 1,1'-dimethyl-4-4'bipyridium ion]	–	–	–	1000 µM	100%	48%	0%	97%	0%	0%	10 µM	100%	100%	100%	100%	95%
